Measured values as given in US4178456A, “Prostenoic acids and esters” (American Cyanamid Company, priority 1977, dated 1979).

How the values were obtained:
[1] = system: collagen induced platelet aggregation; test: Inhibition of Platelet Aggregation-In Vitro, collagen induced; format: cell-based, human; set-up: key: (-): Inhibition; (+): No Inhibition
Text: (§1) It is well known that platelet aggregation inhibitors may be useful as anti-thrombotic drugs. Inhibition of platelet aggregation can be conveniently measured in vitro by monitoring changes in optical density and/or light transmission in platelet rich plasma upon addition of suitable aggregating agents such as adenosine diphosphate, epinephrine, thrombin or collagen. Alternatively, platelet aggregation can be measured in vitro using platelet rich plasma obtained at various time intervales from animals given inhibitors by an oral or parenteral route.
(§2) Human […] is incubated with modified Tyrode's solution in a proportion of 40-50% human […]. The test compounds are added at varying concentrations and after 5 minutes incubation, an aggregating agent such as adenosine diphosphate or collagen is added. The change in optical density (light transmission) is monitored by eye and inhibition is recorded as a (-) or lack of inhibition is recorded as a (+). Test compounds are considered active if they inhibit adenosine diphosphate or collagen induced aggregation at a concentration of 25 mcg/ml or less within 5-10 minutes.

[2] = system: adenosine diphosphate induced platelet aggregation; test: Inhibition of Platelet Aggregation-In Vitro, adenosine diphosphate induced; format: cell-based, human; set-up: key: (-): Inhibition; (+): No Inhibition
Text: as §1, §2

[3] = system: bronchospasms elicited by acetylcholine; test: Bronchodilator Activity (Konzett procedure), acetylcholine; format: in vivo, guinea pigs; settings: Cavia porcellus; three logarithmic cumulative intravenous doses
Experimental: (§3) Bronchodilator activity is determined in guinea pigs against bronchospasms elicited by intravenous injections of 5-hydroxytryptamine, histamine or acetylcholine by the Konzett procedure. [See J. Lulling, P. Lievens, F. El Sayed and J. Prignot, Arzeneimittel-Forschung, 18, 995 (1968).] In Table D, bronchodilator activity for representative compounds of this invention against one or more of the three spasmogenic agents is expressed as an ED50 determined from the results obtained with three logarithmic cumulative intravenous doses.

[4] = system: bronchospasms elicited by histamine; test: Bronchodilator Activity (Konzett procedure), histamine; format: in vivo, guinea pigs; settings: Cavia porcellus; three logarithmic cumulative intravenous doses
Experimental: as §3

[5] = system: mean arterial blood pressure; test: Hypotensive Activity in anesthetized rats; format: in vivo, Male Wistar strain rats; settings: dose 2.1 mg/kg, intravenous (jugular) infusion over one minute, 4 animals, urethane anesthesia
Experimental: This procedure is a modification of the technique described by Pike, et al., Prostaglandins, Nobel Symposium 2, Stockholm, June, 1966, pg. 165.
Male Wistar strain rats (Royal Hart Farms) averaging approximately 250 g in weight are fastened to rat boards in a supine position by means of canvas vests and limb ties. The animals are anesthetized with a 900 mg/kg intraperitoneal dose of urethane. The left carotid artery is cannulated with polyethylene 50 tubing to measure arterial blood pressure and the left external jugular vein is cannulated with polyethylene 50 tubing for drug infusion. The animals are allowed to equilibrate for 15-30 minutes. The test compound is infused in 0.5 ml of saline, over a one minute period, at the indicated dose level, using a Harvard model 940 infusion pump and a 6 cc syringe at speed 5. Each drug dose is flushed with 0.4 ml of saline. The mean arterial blood pressure is measured before and after drug administration using a Statham model P23Db pressure transducer and a Brush model 260 recorder. The percent depression in mean arterial blood pressure and the duration of at least a 10% depression induced by representative compounds of this invention are recorded in Table C.

[6] = system: bronchospasms elicited by 5-hydroxytryptamine; test: Bronchodilator Activity (Konzett procedure), 5-hydroxytryptamine; format: in vivo, guinea pigs; settings: Cavia porcellus; three logarithmic cumulative intravenous doses
Experimental: as §3

| Compound | Inhibition of Platelet Aggregation, Collagen ([1]; drug concentration 0.25 ug/ml) | Inhibition of Platelet Aggregation, Collagen ([1]; drug concentration 2.5 ug/ml) | Inhibition of Platelet Aggregation, Collagen ([1]; drug concentration 25 ug/ml) | Inhibition of Platelet Aggregation, Collagen ([1]; drug concentration 250 ug/ml) | Inhibition of Platelet Aggregation, Adenosine Diphosphate ([2]; drug concentration 0.25 ug/ml) | Inhibition of Platelet Aggregation, Adenosine Diphosphate ([2]; drug concentration 2.5 ug/ml) | Inhibition of Platelet Aggregation, Adenosine Diphosphate ([2]; drug concentration 25 ug/ml) | Inhibition of Platelet Aggregation, Adenosine Diphosphate ([2]; drug concentration 250 ug/ml) | ED50 [3] [µg/kg] | ED50 [4] [µg/kg] | Duration in Minutes of at Least 10% Depression [5] [min] | Percent Depression of Mean Arterial Blood Pressure [5] [%] | ED50 [6] [µg/kg] |
| --- | --- | --- | --- | --- | --- | --- | --- | --- | --- | --- | --- | --- | --- |
| O=C(O)CCC/C=C\C[C@@H]1[C@@H](/C=C/C2(O)CCCCC2)[C@H](O)C[C@@H]1O (relative stereo) [nat(and ent)-9α,11α,15-Trihydroxy-15,16-tetramethylene-17,18,19,20-tetranor-13-trans-5-cis-prostadienoic Acid] | (+) | (+) | (-) | (-) | (+) | (+) | (+) | (-) | – | – | – | – | – |
| O=C(O)CCCC=CCC1C(O)CC(=O)C1C=CC1(O)CCCCC1 (stereo not drawn) [nat(and ent)-9α,15-Dihydroxy-11-oxo-15,16-tetramethylene-17,18,19,20-tetranor-5-cis-13-trans-prostadienoic Acid] | (+) | (-) | (-) | (-) | – | – | (-) | (-) | > 3.2 | > 3.2 | > 20 | -29 | 0.253 |
